Legend:
Format in all cases: in vivo, Sprague-Dawley rats
[1] = system: electrocutaneous stimulation-induced facial pain rodent model; test: ES-induced facial pain model, cold thermal allodynia (acetone test), prophylactic and acute treatment; conditions: for development of cold allodynia vs vehicle: day 9 at 0 time
Method: Cold Thermal threshold was assessed by measuring each rat's facial withdrawal latency (seconds) in response to a single 10 uL drop of acetone directly on the depilated and stimulated rat cheek. Cutoff was set at 60 seconds. Facial withdrawal response criteria were as following: burrowing head, shaking of head back-and-forth, excessive blinking, turning head away from experimenter. Unless stated otherwise, the same materials, methods, and provisions of Example 1 were applied to Example 2. The required quantity of the compound is weighed and dissolved in 100% DMSO in a volume amounting to 5% of the total volume while placed on a stirrer. The weight of the compounds refers to the free base weights. Once the solution becomes clear/transparent, the remaining volume of the vehicle is added (30% HPBCD prepared in MQ water) to final concentrations of 0.03, 0.1, and 0.3 mg/ml for Compound 1. The solutions are kept on a stirrer before- and during administration of the compounds to the animals. The experimenter assessing the behavioral responses to drug administration is blinded to the drug treatment to the animals. Each treatment group is coded according the scheme below: • A. Vehicle (5% DMSO+30% HPBCD): 10 ml/kg • B. Compound 1: 0.3 mg/kg • C. Compound 1: 1 mg/kg • D. Compound 1: 3 mg/kg • F. Compound 1: 3 mg/kg—acute Second baseline measurement was carried out similarly to day 1, For each animal, the average of the two baseline nociceptive measurements was calculated within each pain modality (mechanical, heat- and cold pain), and used as baseline (“Baseline” point on figures). Then all rats in the above respective group (A-D) are given treated as mentioned. Group F received vehicle treatment. Treatment is continued once daily to each group same as Day 2 All rats were treated with respective treatment as per day 3-7. After 1 hr of treatment, each rat was subjected to 1 hr of electrocutaneous stimulation at depilated cheek (0.4 mA intensity, 10 ms duration, 1 s inter-pulse interval). Similar to day 1- and 2, all rats were acclimatized to test equipment followed by measurements of ES-induced facial mechanical- heat- and cold allodynia (“0” time point on figures). After measurement of hypersensitivity threshold, rats from group A-D received the vehicle and three doses of Compound 1 as mentioned above while group F received single acute dose of 3 mg/kg of Compound 1. Treatment effects on pain thresholds were evaluated 2- and 4 hours after administration by assessing mechanical- (Von Frey) and thermal (heat and cold) withdrawal threshold.

[2] = system: electrocutaneous stimulation-induced facial pain rodent model; test: ES-induced facial pain model, hot thermal hyperalgesia (lamp test, selective C fiber testing), acute treatment
Excerpt: (§1) The electrocutaneous stimulation-induced facial pain rodent model is a reproducible orofacial pain model in which depilated cheek area of rats are repeatedly subjected to electrical stimulation. Repeated electrical stimulation at low intensities produces craniofacial pain that mimics the behavioral characteristics of TN such as development of mechanical and thermal allodynia at cheeks despite no visible edema, swelling or excessive injury and tissue damage.
(§2) Male wild type, Sprague-Dawley rats (Charles River Laboratories) born in-house at AfaSci Research Laboratory between May 24, 2020 to May 28, 2020. At approximately 3 months of age (approximately 350 g-450 g body weight) the rats were deemed suitable for the electrocutaneous stimulation-induced facial pain model. Prior to the experiment, the rats were maintained in group cages (3 rats per cage) in a controlled environment (temperature: 21.5±4.5° C./relative humidity: 35-55%) under a standard 12 h light/12 h dark lighting cycle (lights on at 06:00).
(§3) The required quantity of the compounds are weighed and dissolved in 100% DMSO in a volume amounting to 5% of the total volume while placed on a stirrer. The weight of the compounds refers to the free base weights. Once the solution becomes clear/transparent, the remaining volume of the vehicle is added (30% HPBCD prepared in MQ water) to final concentrations of 0.1, 0.3, and 1 mg/ml for Compound 1 and 3 mg/ml of Carbamazepine. The solutions are kept on a stirrer before- and during administration of the compounds to the animals.
(§4) The experimenter assessing the behavioral responses to drug administration is blinded to the drug treatment to the animals. Each treatment group is coded according the scheme below: • A. Vehicle (5% DMSO+30% HPBCD): 10 ml/kg • B. Compound 1: 1 mg/kg • C. Compound 1: 3 mg/kg • D. Compound 1: 10 mg/kg • F. Carbamazepine: 30 mg/kg
Second baseline measurement was carried out similarly to day 1. Immediately following the second baseline recording, each rat received 1 hr of electrocutaneous stimulation at cheek (0.4 mA intensity, 10 ms duration, 1 s inter-pulse interval). For each animal, the average of the two baseline nociceptive measurements were calculated within each pain modality (mechanical, heat- and cold pain), and used as baseline (“Baseline” point on figures).
Similarly, to day 1- and 2, all rats were subjected to acclimatization to test equipment and decapicone followed by measurements of ES-induced facial mechanical- heat- and cold allodynia (“0” time point on figures). Based on the individual rat's mechanical- and thermal hypersensitivity, 40 rats were selected for drug testing. Compound 1, vehicle and Carbamazepine was administered perorally in doses of 1, 3, and 10 mg/kg (Compound 1) or 30 mg/kg (carbamazepine) and drug effects on pain thresholds were evaluated 2- and 4 hours after drug administration by assessment of mechanical- (von Frey) and thermal hypersensitivity (heat- and cold stimulation respectively).
(§5) Decrease in ES-induced pain threshold was evaluated 22 hours following electrical stimulation of the depilated left cheek area (between the eye and ear ridge, this is a receptive field of trigeminal nerve) of each rat and was manifested as facial withdrawal following application of Von Frey filaments for mechanical allodynia and a heat lamp and acetone test for thermal hyperalgesia and allodynia respectively. Baseline pain behaviors were measured similarly to ES-induced facial pain measurements, except that rats were not subjected to ES stimulation.
Immediately following assessment of mechanical pain threshold, thermal (hot- and cold induced) pain was determined. […]

[3] = system: electrocutaneous stimulation-induced facial pain rodent model; test: ES-induced facial pain model, mechanical allodynia (Von Frey filaments), acute treatment; conditions: for effect on mechanical allodynia (mechanical pain threshold, Von Frey) vs vehicle: acute
Excerpt: as §1, §2, §3, §4
Second baseline measurement was carried out similarly to day 1. […] For each animal, the average of the two baseline nociceptive measurements were calculated within each pain modality (mechanical, heat- and cold pain), and used as baseline (“Baseline” point on figures).
Similarly, to day 1- and 2, all rats were subjected to acclimatization to test equipment and decapicone followed by measurements of ES-induced facial mechanical- heat- and cold allodynia (“0” time point on figures). […] Compound 1, vehicle and Carbamazepine was administered perorally in doses of 1, 3, and 10 mg/kg (Compound 1) or 30 mg/kg (carbamazepine) and drug effects on pain thresholds were evaluated 2- and 4 hours after drug administration by assessment of mechanical- (von Frey) and thermal hypersensitivity (heat- and cold stimulation respectively).
as §5
Mechanical pain thresholds were assessed by measuring each rat's facial withdrawal threshold (g) in response to von Frey monofilaments (BioSeb). […]

COc1ncc(-c2cccc(-n3cnc4cc(C(C)(C)O)cnc43)c2)c(OC)n1 [Compound 1, 2-(3-(3-(2,4-dimethoxypyrimidin-5-yl)phenyl)-3H-imidazo[4,5-b]pyridin-6-yl)propan-2-ol]
effect on established cold allodynia vs vehicle ([1]; acute 3 mg/kg po on day 9, p<0.001 and p<0.0001 post 2 and 4 hrs): reversed the mechanical allodynia | effect on established cold allodynia vs vehicle ([1]; prophylactic 0.3 mg/kg po plus additional dose on day 9, p>0.05 post 2 hrs, p<0.01 post 4 hrs): reversed the cold allodynia dose dependently | development of cold allodynia vs vehicle ([1]; prophylactic 1 mg/kg po once daily for 7 days, p<0.05 vs vehicle): significantly reduced the development of cold allodynia | effect on established cold allodynia vs vehicle ([1]; prophylactic 1 mg/kg po plus additional dose on day 9, p<0.01 post 2 hrs, p<0.0001 post 4 hrs): reversed the cold allodynia dose dependently | development of cold allodynia vs vehicle ([1]; prophylactic 3 mg/kg po once daily for 7 days, p<0.0001 vs vehicle): significantly reduced the development of cold allodynia | effect on established cold allodynia vs vehicle ([1]; prophylactic 3 mg/kg po plus additional dose on day 9, p<0.0001 post 2 hrs and post 4 hrs): reversed the cold allodynia dose dependently | effect on heat thermal hyperalgesia (facial withdrawal latency) vs vehicle ([2]; 3 mg/kg po, post 2 and 4 hrs, p<0.05 and p<0.001 vs vehicle): significantly reversed the mechanical allodynia | effect on heat thermal hyperalgesia (facial withdrawal latency) vs vehicle ([2]; 10 mg/kg po, 2 and 4 hrs post dose, p<0.0001): significantly produced reversal of hyperalgesia | reversal of hyperalgesia in the thermal heat test (conclusion) ([2]; 10 mg/kg po, highest dose tested, similar to Carbamazepine 30 mg/kg): full reversal of hyperalgesia | effect on heat thermal hyperalgesia (facial withdrawal latency), dose dependence ([2]; 1, 3 and 10 mg/kg po): dose dependently reversed the heat thermal hyperalgesia | minimal effective dose, heat thermal hyperalgesia ([2]; po, p<0.01 and p<0.05 vs vehicle 2 and 4 hrs post dose): 1 mg/kg | effect on mechanical allodynia (mechanical pain threshold, Von Frey) vs vehicle ([3]; 3 mg/kg po, 4 hours post dosing, p<0.05 vs vehicle): significant analgesic effect | effect on mechanical allodynia (mechanical pain threshold, Von Frey) vs vehicle ([3]; 10 mg/kg po, 2 hrs, p<0.05 vs vehicle): reversed the mechanical allodynia | effect on mechanical allodynia (mechanical pain threshold, Von Frey) vs vehicle ([3]; 10 mg/kg po, 4 hours post dosing, p<0.0001 vs vehicle): significant analgesic effect | analgesic effect on mechanical allodynia compared with carbamazepine 30 mg/kg p.o. ([3]; 10 mg/kg po, post 4 hrs of treatment): comparable analgesic effect with carbamazepine
